Test results from patent publication US8637501B2, “Azinone-substituted azepino[b]indole and pyrido-pyrrolo-azepine MCH-1 antagonists, methods of making, and use thereof” (Albany Molecular Research, Inc., priority 2009, dated 2014).
pKi: −log10 of the molar value. Counter-ions that a name gives are not always drawn.

Target: human MCH-1 receptor (Homo sapiens (Human), UniProt Q99705)
Sequence (Q99705 whole entry): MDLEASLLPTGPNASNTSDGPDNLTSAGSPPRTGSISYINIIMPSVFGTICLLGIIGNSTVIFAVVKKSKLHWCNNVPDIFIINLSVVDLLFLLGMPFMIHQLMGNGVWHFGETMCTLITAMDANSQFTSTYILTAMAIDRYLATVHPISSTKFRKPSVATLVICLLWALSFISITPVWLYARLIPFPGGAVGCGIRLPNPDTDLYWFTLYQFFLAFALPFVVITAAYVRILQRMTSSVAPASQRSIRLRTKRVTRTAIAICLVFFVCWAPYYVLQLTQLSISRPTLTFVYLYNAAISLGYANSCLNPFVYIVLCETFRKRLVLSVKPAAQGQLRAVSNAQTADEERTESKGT
Assay: Binding Assay for Human Melanin-Concentrating Hormone (MCH-1) Receptor
Settings: radioligand displacement, membranes from CHO-K1 cells expressing human MCH-1 receptor; Ki from IC50 by Cheng Prusoff equation; read-out: MCH1 Ki
Method: Binding Assay for Human Melanin-Concentrating Hormone (MCH-1) Receptor
Evaluation of the affinity of compounds for the human MCH-1 receptor was accomplished using 4-(3,4,5-tritritiumbenzyloxy)-1-(1-(2-(pyrrolidin-1-yl)ethyl)-1H-indazol-5-yl)pyridin-2(1H)-one and membranes prepared from stable CHO-K1 cells expressing the human MCH-1 receptor obtained from Euroscreen (Batch 1138). Cell membrane homogenates (8.92 μg protein) were incubated for 60 min at 25° C. with 1.4 nM of the [^3H]-labeled compound in the absence or presence of the test compound in 50 mM Tris-HCl buffer, pH 7.4. Nonspecific binding was determined in the presence of 50 μM 1-(5-(4-cyanophenyl)bicyclo[3.1.0]hexan-2-yl)-3-(4-fluoro-3-(trifluoromethyl)phenyl)-1-(3-(4-methylpiperazin-1-yl)propyl)urea. Following incubation, the samples were filtered rapidly under vacuum through Skatron 11731 filters, pre-soaked in 0.5% polyethylenimine, and washed with ice-cold 50 mM Tris-HCl buffer, pH 7.4, (wash setting 9,9,0) using a Skatron cell harvester. The filters were counted for radioactivity in a liquid scintillation counter (Tri-Carb 2100TR, Packard) using a scintillation cocktail (Ultima Gold MV, Perkin Elmer).
The results are expressed as a percent inhibition of the control radioligand specific binding. The IC50 value (concentration causing a half-maximal inhibition of control specific binding) and Hill coefficient (nH) were determined by non-linear regression analysis of the competition curve using Hill equation curve fitting. The inhibition constant (Ki) was calculated from the Cheng Prusoff equation: (Ki=IC50/(1+(L/KD)), where L=concentration of radioligand in the assay, and KD=affinity of the radioligand for the receptor.
`Cl.Cn1c2c(c3ccc(-n4ccc(-c5ccc(C(F)(F)F)cn5)cc4=O)cc31)CNCCC2` [Example 23, 1-(6-Methyl-1,2,3,4,5,6-hexahydroazepino[4,3-b]indol-8-yl)-4-(5-(trifluoromethyl)pyridin-2-yl)pyridin-2(1H)-one hydrochloride] showed a pKi of 8.33. In the case of `Cl.Cn1c2c(c3ccc(-n4ccc(-c5ccc(C(F)(F)F)nc5)cc4=O)cc31)CNCCC2` [Example 27, 1-(6-Methyl-1,2,3,4,5,6-hexahydroazepino[4,3-b]indol-8-yl)-4-(6-(trifluoromethyl)pyridin-3-yl)pyridin-2(1H)-one hydrochloride], the pKi was 8.28. `Cl.Cn1c2c(c3ccc(-n4ccc(-c5ccc(C(F)(F)F)nc5)cc4=O)nc31)CCNCC2` [Example 78, 1-(10-Methyl-5,6,7,8,9,10-hexahydropyrido[3′,2′:4,5]pyrrolo[2,3-d]azepin-2-yl)-4-(6-(trifluoromethyl)pyridin-3-yl)pyridin-2(1H)-one hydrochloride] gave a pKi of 7.54. With `Cl.Cn1c2c(c3ccc(-n4ccc(OCc5ccc(F)cn5)cc4=O)cc31)CN(C1CCC1)CCC2` [Example 72, 1-(2-Cyclobutyl-6-methyl-1,2,3,4,5,6-hexahydroazepino[4,3-b]indol-8-yl)-4-((5-fluoropyridin-2-yl)methoxy)pyridin-2(1H)-one hydrochloride] the pKi was 8.12. In the case of `CCN1CCCc2c(c3ccc(-n4ccc(OCc5ccc(F)cn5)cc4=O)cc3n2C)C1` [Example 73, 1-(2-Ethyl-6-methyl-1,2,3,4,5,6-hexahydroazepino[4,3-b]indol-8-yl)-4-((5-fluoropyridin-2-yl)methoxy)pyridin-2(1H)-one hydrochloride], the pKi was 8.03. Compound `Cc1ccc(-c2ccn(-c3ccc4c5c(n(C)c4c3)CCNCC5)c(=O)c2)cn1` [Example 11, 1-(6-Methyl-1,2,3,4,5,6-hexahydroazepino[4,5-b]indol-8-yl)-4-(6-methylpyridin-3-yl)pyridin-2(1H)-one dihydrochloride] has a pKi of 7.31. `CCN1CCc2c(n(C)c3cc(N4CCN(CCc5ccc(F)cc5)CC4=O)ccc23)CC1` [Example 99, 1-(3-Ethyl-6-methyl-1,2,3,4,5,6-hexahydroazepino[4,5-b]indol-8-yl)-4-(4-fluorophenethyl)piperazin-2-one dihydrochloride] showed a pKi of 7.77. `Cn1c2c(c3ccc(-n4ccc(OCc5ccc(F)cn5)cc4=O)nc31)CNCCC2` [Example 91, 4-((5-Fluoropyridin-2-yl)methoxy)-1-(10-methyl-5,6,7,8,9,10-hexahydropyrido[3′,2′:4,5]pyrrolo[3,2-c]azepin-2-yl)pyridin-2(1H)-one hydrochloride] showed a pKi of 7.82. With `Cn1c2c(c3ccc(-n4ccc(OCc5ccc(F)cc5F)cc4=O)cc31)CCNCC2` [Example 52, 4-(2,4-Difluorobenzyloxy)-1-(6-methyl-1,2,3,4,5,6-hexahydroazepino[4,5-b]indol-8-yl)pyridin-2(1H)-one hydrochloride] the pKi was 8.11. In the case of `Cn1c2c(c3ccc(-n4ccc(CCc5ccccc5)nc4=O)cc31)CNCCC2` [Example 107, 1-(6-Methyl-1,2,3,4,5,6-hexahydroazepino[4,3-b]indol-8-yl)-4-phenethylpyrimidin-2(1H)-one hydrochloride], the pKi was 8.01. For `Cn1c2c(c3ccc(-n4ccc(OCc5ccccc5)cc4=O)nc31)CCN(C1CCC1)CC2` [Example 86, 4-(Benzyloxy)-1-(7-cyclobutyl-10-methyl-5,6,7,8,9,10-hexahydropyrido[3′,2′:4,5]pyrrolo[2,3-d]azepin-2-yl)pyridin-2(1H)-one hydrochloride], the pKi was 7.80. Work on `Cn1c2c(c3ccc(-n4ncc(OCc5ccc(C(F)(F)F)nc5)cc4=O)cc31)CNCCC2` [Example 60, 2-(6-Methyl-1,2,3,4,5,6-hexahydroazepino[4,3-b]indol-8-yl)-5-((6-(trifluoromethyl)pyridin-3-yl)methoxy)pyridazin-3(2H)-one hydrochloride] yielded a pKi of 7.68. `Cn1c2c(c3ccc(-n4ccc(OCc5ccc(Cl)cn5)cc4=O)cc31)CCNCC2` [Example 50, 4-((5-Chloropyridin-2-yl)methoxy)-1-(6-methyl-1,2,3,4,5,6-hexahydroazepino[4,5-b]indol-8-yl)pyridin-2(1H)-one hydrochloride] gave a pKi of 8.13. In the case of `CN1CCCc2c(c3ccc(-n4ccc(OCc5ccc(F)cn5)cc4=O)cc3n2C)C1` [Example 70, 1-(2,6-Dimethyl-1,2,3,4,5,6-hexahydroazepino[4,3-b]indol-8-yl)-4-((5-fluoropyridin-2-yl)methoxy)pyridin-2(1H)-one hydrochloride], the pKi was 8.06. `Cl.Cn1c2c(c3ccc(-n4ccc(-c5ccc(C(F)(F)F)cc5)cc4=O)cc31)CCNCC2` [Example 41, 1-(6-Methyl-1,2,3,4,5,6-hexahydroazepino[4,5-b]indol-8-yl)-4(4-trifluoromethyl)phenyl)pyridin-2(1H)-one hydrochloride] gave a pKi of 8.00. Work on `CC(=O)N1CCc2c(n(C)c3cc(-n4ccc(-c5ccc(C(F)(F)F)nc5)cc4=O)ccc23)CC1` [Example 46, 1-(3-Acetyl-6-methyl-1,2,3,4,5,6-hexahydroazepino[4,5-b]indol-8-yl)-4-(6-(trifluoromethyl)pyridin-3-yl)pyridin-2(1H)-one] yielded a pKi of 7.33. Work on `Cc1ccc(COc2ccn(-c3ccc4c5c(n(C)c4c3)CCCNC5)c(=O)c2)cn1` [Example 34, 1-(6-Methyl-1,2,3,4,5,6-hexahydroazepino[4,3-b]indol-8-yl)-4-((6-methylpyridin-3-yl)methoxy)pyridin-2(1H)-one hydrochloride] yielded a pKi of 7.97. With `Cn1c2c(c3ccc(-n4ccc(OCc5ccc(Cl)cc5F)cc4=O)nc31)CNCCC2` [Example 96, 4-(4-Chloro-2-fluorobenzyloxy)-1-(10-methyl-5,6,7,8,9,10-hexahydropyrido[3′,2′:4,5]pyrrolo[3,2-c]azepin-2-yl)pyridin-2(1H)-one hydrochloride] the pKi was 8.04. Compound `Cn1c2c(c3ccc(-n4ccc(-c5ccc(C(F)(F)F)cn5)cc4=O)nc31)CNCCC2` [Example 92, 1-(10-methyl-5,6,7,8,9,10-hexahydropyrido[3′,2′:4,5]pyrrolo[3,2-c]azepin-2-yl)-4-(5-(trifluoromethyl)pyridine-2-yl)pyridin-2(1H)-one hydrochloride] has a pKi of 7.70. In the case of `Cn1c2c(c3ccc(-n4ccc(OCc5ccc(C(F)(F)F)nc5)cc4=O)cc31)CCNCC2` [Example 5, 1-(6-Methyl-1,2,3,4,5,6-hexahydroazepino[4,5-b]indol-8-yl)-4-((6-(trifluoromethyl)pyridin-3-yl)methoxy)pyridin-2(1H)-one dihydrochloride], the pKi was 7.93.

Tested on: not given
Assay: not given
Settings: not given
With `Cl.Cn1c2c(c3ccc(-n4ccc(-c5ccc(C(F)(F)F)cn5)cc4=O)cc31)CNCCC2` [Example 23, 1-(6-Methyl-1,2,3,4,5,6-hexahydroazepino[4,3-b]indol-8-yl)-4-(5-(trifluoromethyl)pyridin-2-yl)pyridin-2(1H)-one hydrochloride] the melting point was 264 to 270 °C (dec.). With `Cn1c2c(c3ccc(-n4ccc(-c5ccc(C(F)(F)F)cn5)cc4=O)cc31)CCNCC2` (as salt: hydrochloride) [Example 3, 1-(6-Methyl-1,2,3,4,5,6-hexahydroazepino[4,5-b]indol-8-yl)-4-(5-(trifluoromethyl)pyridin-2-yl)pyridin-2(1H)-one dihydrochloride] the melting point was 310 to 312 °C. With `Cl.Cn1c2c(c3ccc(-n4ccc(-c5ccc(C(F)(F)F)nc5)cc4=O)cc31)CNCCC2` [Example 27, 1-(6-Methyl-1,2,3,4,5,6-hexahydroazepino[4,3-b]indol-8-yl)-4-(6-(trifluoromethyl)pyridin-3-yl)pyridin-2(1H)-one hydrochloride] the melting point was 274 to 280 °C (dec.). In the case of `Cl.Cn1c2c(c3ccc(-n4ccc(-c5ccc(C(F)(F)F)nc5)cc4=O)nc31)CCNCC2` [Example 78, 1-(10-Methyl-5,6,7,8,9,10-hexahydropyrido[3′,2′:4,5]pyrrolo[2,3-d]azepin-2-yl)-4-(6-(trifluoromethyl)pyridin-3-yl)pyridin-2(1H)-one hydrochloride], the melting point was 320 to 325 °C (dec.). `Cl.Cn1c2c(c3ccc(-n4ccc(OCc5ccc(F)cn5)cc4=O)cc31)CN(C1CCC1)CCC2` [Example 72, 1-(2-Cyclobutyl-6-methyl-1,2,3,4,5,6-hexahydroazepino[4,3-b]indol-8-yl)-4-((5-fluoropyridin-2-yl)methoxy)pyridin-2(1H)-one hydrochloride] showed a melting point of 260 to 265 °C. For `Cl.Cn1c2c(c3ccc(-n4ccc(-c5ccc(C(F)(F)F)cc5)cc4=O)cc31)CCNCC2` [Example 41], the melting point was 306 to 310 °C (dec.). With `Cl.Cn1c2c(c3ccc(-n4ccc(-c5ccc(C(F)(F)F)cn5)cc4=O)cc31)CCCNC2` [Example 20] the melting point was 288 to 296 °C (dec.). With `Cn1c2c(c3ccc(-n4ccc(OCc5ccc(C(F)(F)F)nc5)cc4=O)cc31)CCNCC2` (as salt: hydrochloride) [Example 5, 1-(6-Methyl-1,2,3,4,5,6-hexahydroazepino[4,5-b]indol-8-yl)-4-((6-(trifluoromethyl)pyridin-3-yl)methoxy)pyridin-2(1H)-one dihydrochloride] the melting point was 296 to 300 °C. In the case of `O=c1cc(-c2ccc(C(F)(F)F)cn2)ccn1-c1ccc2c3c([nH]c2c1)CCNCC3` (as salt: hydrochloride) [Example 9, 1-(1,2,3,4,5,6-Hexahydroazepino[4,5-b]indol-8-yl)-4-(5-(trifluoromethyl)pyridin-2-yl)pyridin-2(1H)-one dihydrochloride], the melting point was 288 to 290 °C. In the case of `Cl.Cn1c2c(c3ccc(-n4ccc(OCc5ccc(F)cn5)cc4=O)cc31)CCNCC2` [Example 40], the melting point was 194 to 202 °C (dec.). For `Cl.Cn1c2c(c3ccc(-n4ccc(-c5ccc(C(F)(F)F)cc5)cc4=O)cc31)CNCCC2` [Example 26], the melting point was 264 to 270 °C (dec.). In the case of `Cn1c2c(c3ccc(-n4ncc(OCc5ccc(F)cn5)cc4=O)cc31)CCNCC2` (as salt: hydrochloride) [Example 10, 5-((5-Fluoropyridin-2-yl)methoxy)-2-(6-methyl-1,2,3,4,5,6-hexahydroazepino[4,5-b]indol-8-yl)pyridazin-3(2H)-one dihydrochloride], the melting point was 250 to 254 °C.
